“And” between values parts separate entries of the source, which are not always exact repeats. Identical values can stand only once.
Columns and labels:
[1] = tested on: PHBPU; experiment: Pre-emergence action at 320 g/ha against PHBPU; assay type: in vivo; conditions: visual scoring after about 3 weeks vs untreated controls
Method in brief: (§1)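 Effect rated visually (% vs untreated control) about 3 weeks after pre-emergence spraying of WP/EC formulation onto soil; spray carried 0.5% additive at 600 l/ha water.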

[2] = tested on: HORMU; experiment: Pre-emergence action at 320 g/ha against HORMU; assay type: in vivo, Hordeum murinum; conditions: greenhouse, scored visually after about 3 weeks vs untreated controls, 100% = plants have died, 0% = like control plants
Source text: (§2) b) Seeds of monocotyledonous and dicotyledonous weed plants and crop plants are placed in plastic or organic planting pots and covered with soil. The compounds of the invention, formulated in the form of wettable powders (WP) or as emulsion concentrates (EC), are then applied onto the surface of the covering soil as aqueous suspension or emulsion with addition of 0.5% additive at a water application rate of 600 l/ha (converted). After the treatment, the pots are placed in a greenhouse and kept under good growth conditions for the trial plants. After about 3 weeks, the effect of the preparations is scored visually in comparison with untreated controls as percentages. For example, 100% activity=the plants have died, 0% activity=like control plants. Tables 13 to 26 below show the effects of selected compounds of the general formula (I) on various harmful plants and at an application rate corresponding to 320 g/ha, which were obtained by the experimental procedure mentioned above.

[3] = tested on: STEME; experiment: Pre-emergence action at 320 g/ha against STEME; assay type: in vivo, Stellaria media; conditions: greenhouse, scored visually after about 3 weeks vs untreated controls, 100% = plants have died, 0% = like control plants
Source text: as §2

[4] = tested on: ABUTH; experiment: Pre-emergence action at 320 g/ha against ABUTH; assay type: in vivo, Abutilon theophrasti; conditions: greenhouse, scored visually after about 3 weeks vs untreated controls, 100% = plants have died, 0% = like control plants
Method in brief: as §1

| SMILES | Pre-emergence action against PHBPU in % [1] | Pre-emergence action at 320 g/ha against HORMU in % [2] [%] | Pre-emergence action at 320 g/ha against STEME in % [3] [%] | Pre-emergence action at 320 g/ha against ABUTH in % [4] [%] |
| --- | --- | --- | --- | --- |
| COC(=O)CNC(=O)COc1nn(-c2ccccc2F)c(-c2ccc(F)nc2)c1Br [Example X-002] | 80% |  |  |  |
| CN(C)S(=O)(=O)NC(=O)COc1nn(-c2ccccc2F)c(-c2ccc(F)nc2)c1Br [Example X-005] | 90% |  |  |  |
| COC(=O)COc1nn(-c2ccccc2F)c(-c2cncnc2)c1Br [VI-004, Methyl {[4-bromo-1-(2-fluorophenyl)-5-(pyrimidin-5-yl)-1H-pyrazol-3-yl]oxy}acetate] |  | 100 | 90 | 80 |
| O=C(O)COc1nn(-c2ccccc2F)c(-c2cncnc2)c1Br [VI-007, {[4-Bromo-1-(2-fluorophenyl)-5-(pyrimidin-5-yl)-1H-pyrazol-3-yl]oxy}acetic Acid] | 90% | 100 | 100 |  |
| COC(=O)[C@@H](C)Oc1nn(-c2ccccc2F)c(-c2cncnc2)c1Br [VI-011, Methyl (2R)-2-{[4-bromo-1-(2-fluorophenyl)-5-(pyrimidin-5-yl)-1H-pyrazol-3-yl]oxy}propanoate] | 90% |  |  | 80 |
| C[C@@H](Oc1nn(-c2ccccc2F)c(-c2cncnc2)c1Br)C(=O)O [VI-012] | 90% |  |  | 80 |
| COC(=O)[C@@H](C)Oc1nn(-c2ccccc2)c(-c2cncnc2)c1Br [VI-013] |  |  |  | 80 |
| COC(=O)COc1nn(-c2ccc(F)cc2)c(-c2ccc(F)nc2)c1Br [VII-002] |  | 80 | 90 |  |
| O=C(O)COc1nn(-c2ccccc2F)c(-c2ccc(F)nc2)c1Br [VII-003, {[4-Bromo-1-(2-fluorophenyl)-5-(6-fluoropyridin-3-yl)-1H-pyrazol-3-yl]oxy}acetic acid] | 90% | 90 | 90 |  |
| COC(=O)[C@@H](C)Oc1nn(-c2ccccc2)c(-c2cccnc2)c1Br [VII-008] | 80% |  |  | 80 |
| CCOC(=O)COc1nn(-c2ccccc2F)c(-c2ccc(F)nc2)c1C(F)(F)F [VII-010] | 90% |  |  |  |
| CCOC(=O)COc1nn(-c2ccccc2F)c(-c2ccc(F)nc2)c1Br [VII-012, Ethyl {[4-bromo-1-(2-fluorophenyl)-5-(6-fluoropyridin-3-yl)-1H-pyrazol-3-yl]oxy}acetate] | 90% and 80% | 80 | 100 |  |
| CCOC(=O)COc1nn(-c2ccccc2F)c(-c2cncc(F)c2)c1Br [VII-015] | 90% |  |  | 80 |
| CCOC(=O)COc1nn(-c2ccc(F)cc2F)c(-c2ccc(F)nc2)c1Cl [VII-016] | 90% | 90 | 90 |  |
| CCOC(=O)C(C)Oc1nn(-c2ccccc2F)c(-c2ccc(F)nc2)c1Br (stereo not shown) [VII-019] | 90% | 100 | 90 |  |
| COC(=O)C(C)Oc1nn(-c2ccccc2)c(-c2ccc(F)nc2)c1Cl (stereo not shown) [VII-023, Methyl 2-{[4-chloro-5-(6-fluoropyridin-3-yl)-1-phenyl-1H-pyrazol-3-yl]oxy}propanoate] |  | 100 | 90 |  |
| O=C(O)COc1nn(-c2ccccc2F)c(-c2cncc(F)c2)c1Br [VII-025] | 90% |  |  |  |
| COC(=O)COc1nn(-c2ccc(F)cc2)c(-c2cccnc2)c1Br [VII-028] | 100% |  | 90 | 90 |
| CCC(Oc1nn(-c2ccccc2F)c(-c2ccc(F)nc2)c1Br)C(=O)OC (stereo not shown) [VII-029] |  | 90 | 90 |  |
| COC(=O)COc1nn(-c2ccccc2F)c(-c2ccc(F)nc2)c1C(F)(F)F [VII-031] | 80% |  |  |  |
| COC(=O)C(C)Oc1nn(-c2ccccc2)c(-c2cccnc2)c1Cl (stereo not shown) [VII-032] | 100% | 80 | 90 |  |
| COC(=O)COc1nn(-c2ccccc2F)c(-c2cncc(F)c2)c1Br [VII-035] | 90% |  |  | 90 |
| COC(=O)COc1nn(-c2cc(F)ccc2F)c(-c2ccc(F)nc2)c1Br [VII-089] | 80% |  |  |  |
| COC(=O)[C@@H](C)Oc1nn(-c2cc(F)ccc2F)c(-c2cncc(F)c2)c1Br [VII-132] |  |  |  | 90 |
| CCOC(=O)COc1nn(-c2ccccc2F)c(-c2ccnc(F)c2)c1Br [VIII-003, Ethyl {[4-bromo-1-(2-fluorophenyl)-5-(2-fluoropyridin-4-yl)-1H-pyrazol-3-yl]oxy}acetate] |  | 90 | 80 |  |
| O=C(O)COc1nn(-c2ccccc2F)c(-c2ccnc(F)c2)c1Br [VIII-004] |  |  | 90 |  |
| COC(=O)[C@@H](C)Oc1nn(-c2ccccc2F)c(-c2ccnc(F)c2)c1Br [VIII-006] | 90% |  |  |  |

From patent US12180187B2, “1-phenyl-5-azinylpyrazolyl-3-oxyalkyl acids and their use for controlling unwanted plant growth” (BAYER AKTIENGESELLSCHAFT, priority 2019, dated 2024)
